# Data reported in ChEMBL document CHEMBL1132829, “Synthesis of a statistically exhaustive fluorescent peptide substrate library for profiling protease specificity” (Bioorg Med Chem Lett, 2000).
# Where a SMILES comes first, the peptide text is derived from it. [ ]: non-standard residue; d: D form. The star is where a group is joined. AMC = Cc1cc(=O)oc2cc(N*)ccc12; Cha = N[CH](CC1CCCCC1)C(=O)O; MeOSuc = COC(=O)CCC(=O)*; Orn = NCCC[C@H](N)C(=O)O; Cbz = O=C(OCc1ccccc1)*; Boc = CC(C)(C)OC(=O)*; Ms = CS(=O)(=O)*
# Target: Cathepsin B (Homo sapiens) (UniProt P07858)
# Assay: Compound was evaluated for its inhibitory activity against cathepsin B at 100 uM concentration of substrate
# Set-up: scale not given: the % may be the effect or the level left
row,Control [%],SMILES
1,37,CC(=O)N[C@@H](Cc1ccccc1)C(=O)N[C@@H](CCCN=C(N)N)C(=O)N[C@@H](CCCCN)C(=O)Nc1ccc2c(C)cc(=O)oc2c1 (Ac-Phe-Arg-Lys-{AMC})
2,23,CC(=O)N[C@@H](Cc1ccccc1)C(=O)N[C@H](C(=O)N[C@@H](CCCCN)C(=O)Nc1ccc2c(C)cc(=O)oc2c1)C(C)C (Ac-Phe-Val-Lys-{AMC})
3,18,CC(=O)N[C@@H](Cc1ccccc1)C(=O)N[C@@H](CCCN)C(=O)N[C@@H](CCCN=C(N)N)C(=O)Nc1ccc2c(C)cc(=O)oc2c1 (Ac-Phe-[Orn]-Arg-{AMC})
4,100,Cc1cc(=O)oc2cc(NC(=O)[C@H](CCCN=C(N)N)NC(=O)[C@H](CCCCN)NC(=O)[C@H](CC(C)C)NC(=O)OC(C)(C)C)ccc12 (Boc-Leu-Lys-Arg-{AMC})
5,43,CC(=O)N[C@@H](Cc1ccccc1)C(=O)N[C@@H](CCCCN)C(=O)N[C@@H](CCCN=C(N)N)C(=O)Nc1ccc2c(C)cc(=O)oc2c1 (Ac-Phe-Lys-Arg-{AMC})
6,46,CC(=O)N[C@@H](Cc1ccccc1)C(=O)N[C@@H](CCCN=C(N)N)C(=O)N[C@@H](CCCN=C(N)N)C(=O)Nc1ccc2c(C)cc(=O)oc2c1 (Ac-Phe-Arg-Arg-{AMC})
7,18,CSCC[C@H](NC(=O)[C@H](Cc1ccccc1)NC(C)=O)C(=O)N[C@@H](CCCCN)C(=O)Nc1ccc2c(C)cc(=O)oc2c1 (Ac-Phe-Met-Lys-{AMC})
8,21,CC(=O)N[C@@H](Cc1ccccc1)C(=O)N[C@@H](CCCN)C(=O)N[C@@H](CCCCN)C(=O)Nc1ccc2c(C)cc(=O)oc2c1 (Ac-Phe-[Orn]-Lys-{AMC})

# Target: Coagulation factor X (Homo sapiens) (UniProt P00742)
# Sequence (P00742 41-179 limits assumed): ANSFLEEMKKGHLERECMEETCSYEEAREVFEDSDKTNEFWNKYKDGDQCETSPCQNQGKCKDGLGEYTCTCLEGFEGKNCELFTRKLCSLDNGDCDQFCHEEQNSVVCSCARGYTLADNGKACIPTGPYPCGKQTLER
# Sequence (P00742 235-488 limits assumed): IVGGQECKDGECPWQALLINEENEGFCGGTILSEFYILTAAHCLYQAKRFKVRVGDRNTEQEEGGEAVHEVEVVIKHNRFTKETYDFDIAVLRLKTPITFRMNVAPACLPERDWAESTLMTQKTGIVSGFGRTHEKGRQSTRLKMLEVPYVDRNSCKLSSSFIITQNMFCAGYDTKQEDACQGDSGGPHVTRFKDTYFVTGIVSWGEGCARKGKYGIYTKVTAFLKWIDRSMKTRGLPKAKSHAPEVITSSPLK
# Assay: Compound was evaluated for its inhibitory activity against Coagulation factor X at 100 uM concentration of substrate
# Set-up: scale not given: the % may be the effect or the level left
row,Control [%],SMILES
1,100,Cc1cc(=O)oc2cc(NC(=O)C(CCCN=C(N)N)NC(=O)CNC(=O)C(CC3CCCCC3)NS(C)(=O)=O)ccc12 (stereo not drawn) (Ms-[Cha]-Gly-Arg-{AMC}; configuration not given here)
2,1.1,CC(=O)N[C@@H](Cc1ccccc1)C(=O)N[C@@H](Cc1ccc(O)cc1)C(=O)N[C@@H](CCCN=C(N)N)C(=O)Nc1ccc2c(C)cc(=O)oc2c1 (Ac-Phe-Tyr-Arg-{AMC})

# Target: T1, Neutrophil elastase (Homo sapiens) (UniProt P08246)
# T1 sequence (whole entry): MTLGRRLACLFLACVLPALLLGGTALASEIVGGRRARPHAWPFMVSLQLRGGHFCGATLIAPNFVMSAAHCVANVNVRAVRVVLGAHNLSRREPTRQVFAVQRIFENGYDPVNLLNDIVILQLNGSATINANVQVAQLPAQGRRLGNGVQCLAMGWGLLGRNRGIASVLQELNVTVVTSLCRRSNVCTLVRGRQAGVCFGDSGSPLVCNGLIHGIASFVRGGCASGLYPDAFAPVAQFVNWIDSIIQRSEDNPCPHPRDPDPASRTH
# Assay: Compound was evaluated for its inhibitory activity against elastase at 100 uM concentration of substrate
# Set-up: scale not given: the % may be the effect or the level left
row,Control [%],SMILES
1,0.8,CC(=O)N[C@@H](Cc1ccccc1)C(=O)N1CCC[C@H]1C(=O)N[C@@H](C)C(=O)Nc1ccc2c(C)cc(=O)oc2c1 (Ac-Phe-Pro-Ala-{AMC})
2,100,COC(=O)CCC(=O)N[C@@H](C)C(=O)N[C@@H](C)C(=O)N1CCC[C@H]1C(=O)N[C@H](C(=O)Nc1ccc2c(C)cc(=O)oc2c1)C(C)C (MeOSuc-AAPV-{AMC})
3,11,CC(=O)N[C@@H](Cc1ccccc1)C(=O)N1CCC[C@H]1C(=O)N[C@H](C(=O)Nc1ccc2c(C)cc(=O)oc2c1)C(C)C (Ac-Phe-Pro-Val-{AMC})
4,1,CC(=O)N[C@@H](Cc1ccccc1)C(=O)N[C@@H](CCC(=O)O)C(=O)N[C@H](C(=O)Nc1ccc2c(C)cc(=O)oc2c1)C(C)C (Ac-Phe-Glu-Val-{AMC})
5,1.6,CC(=O)N[C@@H](Cc1ccccc1)C(=O)N[C@H](C(=O)N[C@H](C(=O)Nc1ccc2c(C)cc(=O)oc2c1)C(C)C)[C@@H](C)O (Ac-Phe-Thr-Val-{AMC})

# Target: Prothrombin (Homo sapiens) (UniProt P00734)
# Assay: Compound was evaluated for its inhibitory activity against thrombin at 100 uM concentration of substrate
# Set-up: scale not given: the % may be the effect or the level left
row,Control [%],SMILES
1,5.4,CC(=O)N[C@@H](Cc1ccccc1)C(=O)N1CCC[C@H]1C(=O)NC(CCCN=C(N)N)C(=O)Nc1ccc2c(C)cc(=O)oc2c1 (stereo partly specified)
2,100,Cc1cc(=O)oc2cc(NC(=O)[C@H](CCCN=C(N)N)NC(=O)[C@@H]3CCCN3C(=O)CNC(=O)OCc3ccccc3)ccc12 (Cbz-Gly-Pro-Arg-{AMC})

# Target: Urokinase-type plasminogen activator (Homo sapiens) (UniProt P00749)
# Assay: Compound was evaluated for its inhibitory activity against urokinase at 100 uM concentration of substrate
# Set-up: scale not given: the % may be the effect or the level left
row,Control [%],SMILES
1,100,Cc1cc(=O)oc2cc(NC(=O)C(CCCN=C(N)N)NC(=O)CNC(=O)C(N)CCC(=O)O)ccc12 (stereo not drawn) (H-Glu-Gly-Arg-{AMC}; configuration not given here)
2,4.2,CC(=O)N[C@@H](Cc1ccccc1)C(=O)N[C@@H](CO)C(=O)N[C@@H](CCCN=C(N)N)C(=O)Nc1ccc2c(C)cc(=O)oc2c1 (Ac-Phe-Ser-Arg-{AMC})
3,2,CC(=O)N[C@@H](Cc1ccccc1)C(=O)N[C@@H](C)C(=O)N[C@@H](CCCN=C(N)N)C(=O)Nc1ccc2c(C)cc(=O)oc2c1 (Ac-Phe-Ala-Arg-{AMC})
4,3.9,CC(=O)NC(Cc1ccccc1)C(=O)NCC(=O)NC(CCCN=C(N)N)C(=O)Nc1ccc2c(C)cc(=O)oc2c1 (stereo not drawn) (Ac-Phe-Gly-Arg-{AMC}; configuration not given here)
